This is an account of results in patent US5762953A, “Transdermal propentofylline compositions for the treatment of Alzheimers disease” (Theratech, Inc., priority 1996, dated 1998).

The conditions of data set [1]: oral treatment; cited from earlier work.
For data set [2] the following is noted: cited from earlier work.
For data set [3] the following is noted: cited from earlier work. The source holds these as a separate data set.
Data set [4] in a line: In vitro skin flux study of reservoir formulations, heat separated human epidermal membrane, modified Franz diffusion cells. The data set is classed as in vitro ADME. The procedure: Two reservoir type formulations (I and II) were prepared for the determination of initial propentofylline skin flux rates.
Approximately 4.0 ml of a base solution was prepared in a 7 ml glass vial. This solution consisted of 50% v/v of ethanol, USP; 15% v/v purified water (18 Mohm-cm); 30% v/v glycerin, USP; 1% v/v of glycerol monooleate (GMO, "Myverol® 18-99); 1% v/v methyl laurate (ML). To one solution was added sufficient propentofylline provide a concentration of about 72 mg/ml of solution (Formulation I) and to the other was added sufficient propentofylline to provide a concentration of about 131 mg/ml of solution (Formulation II). To each solution was added about 3% v/v of hydroxypropyl methylcellulose (Methocel® E10M) as a thickening agent. […]
Dermatomed (≈[…]) full thickness human cadaver skin was obtained from skin banks. […] Information on age, race, sex and anatomical site of the donor skin was recorded when available.
[…] skin flux studies were conducted using a heat separated human epidermal membrane and modified Franz diffusion cells. […] At predetermined time points, the entire contents of the receiver compartment were collected for drug quantitation,and the receiver compartment refilled with fresh receptor medium, taking care to eliminate any air bubbles at the skin/solution interface. […]

Another data set has as its system nucleoside transport. The conditions noted are these: cerebral ischemia; cited from earlier work.

Consider `CCCn1cnc2c1c(=O)n(CCCCC(C)=O)c(=O)n2C` [propentofylline, 1-(5'-oxohexyl)-3-methyl-7-propylxanthine], for which the “most frequent side effects” value in data set [1] was “headaches, dizziness, gastrointestinal pain and nausea”. Further, the plasma propentofylline concentration in data set [2] (2 hours following a single 300 mg oral dose, concluded from literature PK data) was ~10 ng/mL. Besides, in data set [2] (humans), the elimination half-life is 15 to 45 min and the “hepatic first pass metabolism” value was “extensive hepatic first pass metabolism primarily to inactive metabolites”. Further, in data set [2] (oral, humans), the “absolute bioavailability after oral administration” value was 5-10% and the “effect of food on bioavailability” value is on record as “Drug interactions with food further reduce bioavailability”. Moreover, the “rate of deterioration / acute improvement of patient's condition” value in data set [3] (neuroprotective effect) is reported as “although not producing an acute improvement in the patient's condition, does cause a reduction in the rate of deterioration”. Further, the “clinical parameters in dementia” value in data set [3] (placebo controlled trials, mild to moderate dementia) is on record as “positively influence clinical parameters in placebo controlled trials”. Also, in data set [4], the constant migration rate result was “about 2 mg/cm^2 /24 h” and the “sustained daily dosage provided by transdermal delivery” value was determined as 30 mg. Further, the “nucleoside transport inhibition, neuroprotective effects” value with nucleoside transport is recorded as “nucleoside transport inhibitor with neuroprotective effects in cerebral ischemia”.
